Results: ChEMBL document CHEMBL5678804 (Cancer Cell, 2011)
The source made the active and inactive calls. The rule behind the calls is not given here.

Columns and labels:
[1] = system: BaF3; test: In vivo inhibition of BCR-ABL1 T315I signalling in mouse BaF3 cells harbouring BCR-ABL1 T315I mutant xenografted in Balb/c mouse model at 100 mg/kg, po administered as single dose measured after 8 hrs by flow cytometry analysis; format: functional, organism-based
[2] = molecular target: Myosin light chain kinase 2, skeletal/cardiac muscle (Homo sapiens, UniProt Q9H1R3); test: Inhibition of human wild type MLCK2 using RB-S6P as substrate preincubated for 2 hrs followed by ATP addition and measured every 2 mins for […] by spectrophotometric analysis
[3] = molecular target: Ephrin type-A receptor 6 (Homo sapiens, UniProt Q9UF33); test: Inhibition of human wild type EPHA6 using PolyEY as substrate preincubated for 2 hrs followed by ATP addition and measured every 2 mins for […] by spectrophotometric analysis
[4] = molecular target: Serine/threonine-protein kinase WNK2 (Homo sapiens, UniProt Q9Y3S1); test: Inhibition of human wild type WNK2 using RBER-CHKtide as substrate preincubated for 2 hrs followed by ATP addition and measured every 2 mins for […] by spectrophotometric analysis
[5] = molecular target: Mitogen-activated protein kinase 10 (Homo sapiens, UniProt P53779); test: Inhibition of human wild type JNK3 using ATF2 as substrate preincubated for 2 hrs followed by ATP addition and measured every 2 mins for […] by spectrophotometric analysis
[6] = molecular target: MAP kinase-interacting serine/threonine-protein kinase 2 (Homo sapiens, UniProt Q9HBH9); test: Inhibition of human wild type MNK2 using RB-S6P as substrate preincubated for 2 hrs followed by ATP addition and measured every 2 mins for […] by spectrophotometric analysis
[7] = molecular target: Cyclin-dependent kinase 1 (Homo sapiens, UniProt P06493); test: Inhibition of human wild type CDK1 using PolyEY as substrate preincubated for 2 hrs followed by ATP addition and measured every 2 mins for […] by spectrophotometric analysis
[8] = molecular target: Tyrosine-protein kinase Fes/Fps (Homo sapiens, UniProt P07332); test: Inhibition of human wild type FES using PolyEY as substrate preincubated for 2 hrs followed by ATP addition and measured every 2 mins for […] by spectrophotometric analysis
[9] = molecular target: Mitogen-activated protein kinase 13 (Homo sapiens, UniProt O15264); test: Inhibition of human wild type p38 delta using RBER-CHKtide as substrate preincubated for 2 hrs followed by ATP addition and measured every 2 mins for […] by spectrophotometric analysis
[10] = molecular target: T1, Tyrosine-protein kinase ABL1 (Homo sapiens, UniProt P00519); details: Sf9, time 2.0 hrs
[11] = molecular target: Serine/threonine-protein kinase SIK2 (Homo sapiens, UniProt Q9H0K1); test: Inhibition of human wild type SIK2 using RBER-CHKtide as substrate preincubated for 2 hrs followed by ATP addition and measured every 2 mins for […] by spectrophotometric analysis
[12] = molecular target: Protein kinase C alpha type (Homo sapiens, UniProt P17252); test: Inhibition of human wild type PKC alpha using 3xChocktide-PKC(19to 31) as substrate preincubated for 2 hrs followed by ATP addition and measured every 2 mins for […] by spectrophotometric analysis
[13] = molecular target: Cytoplasmic tyrosine-protein kinase BMX (Homo sapiens, UniProt P51813); test: Inhibition of human wild type Bmx using PolyEY as substrate preincubated for 2 hrs followed by ATP addition and measured every 2 mins for […] by spectrophotometric analysis
[14] = molecular target: cGMP-dependent protein kinase 2 (Homo sapiens, UniProt Q13237); test: Inhibition of human wild type PKG2 using RBER-GSK3(14to 27) as substrate preincubated for 2 hrs followed by ATP addition and measured every 2 mins for […] by spectrophotometric analysis
[15] = molecular target: Misshapen-like kinase 1 (Homo sapiens, UniProt Q8N4C8); test: Inhibition of human wild type MINK using RBER-CHKtide as substrate preincubated for 2 hrs followed by ATP addition and measured every 2 mins for […] by spectrophotometric analysis
[16] = molecular target: Serine/threonine-protein kinase NLK (Homo sapiens, UniProt Q9UBE8); test: Inhibition of human wild type NLK using RBER-GSK3([…]-[…]) as substrate preincubated for 2 hrs followed by ATP addition and measured every 2 mins for […] by spectrophotometric analysis
[17] = molecular target: Tyrosine-protein kinase receptor TYRO3 (Homo sapiens, UniProt Q06418); test: Inhibition of human wild type SKY using PolyEY as substrate preincubated for 2 hrs followed by ATP addition and measured every 2 mins for […] by spectrophotometric analysis
[18] = Toxicity in Balb/c mouse assessed as hindlimb paralysis; details: in vivo
[19] = molecular target: Serine/threonine-protein kinase TBK1 (Homo sapiens, UniProt Q9UHD2); test: Inhibition of human wild type TBK1 using Casein as substrate preincubated for 2 hrs followed by ATP addition and measured every 2 mins for […] by spectrophotometric analysis
[20] = molecular target: cGMP-dependent protein kinase 1 (Homo sapiens, UniProt Q13976); test: Inhibition of human wild type PKG1 alpha using 3xChocktide-PKC(19to 31) as substrate preincubated for 2 hrs followed by ATP addition and measured every 2 mins for […] by spectrophotometric analysis
[21] = molecular target: SRSF protein kinase 3 (Homo sapiens, UniProt Q9UPE1); test: Inhibition of human wild type MSSK1 using RBER-CHKtide as substrate preincubated for 2 hrs followed by ATP addition and measured every 2 mins for […] by spectrophotometric analysis
[22] = molecular target: Serine/threonine-protein kinase PLK1 (Homo sapiens, UniProt P53350); test: Inhibition of human wild type PLK1 using RBER-CHKtide as substrate preincubated for 2 hrs followed by ATP addition and measured every 2 mins for […] by spectrophotometric analysis
[23] = molecular target: Macrophage-stimulating protein receptor (Homo sapiens, UniProt Q04912); test: Inhibition of human wild type RON using PolyEY as substrate preincubated for 2 hrs followed by ATP addition and measured every 2 mins for […] by spectrophotometric analysis
[24] = molecular target: Myosin light chain kinase (Homo sapiens, UniProt Q32MK0); test: Inhibition of human wild type MLCK using RB-S6P as substrate preincubated for 2 hrs followed by ATP addition and measured every 2 mins for […] by spectrophotometric analysis
[25] = molecular target: Megakaryocyte-associated tyrosine-protein kinase (Homo sapiens, UniProt P42679); test: Inhibition of human wild type CTK using PolyEY as substrate preincubated for 2 hrs followed by ATP addition and measured every 2 mins for […] by spectrophotometric analysis
[26] = molecular target: Dual specificity mitogen-activated protein kinase kinase 6 (Homo sapiens, UniProt P52564); test: Inhibition of human wild type MKK6 using p38-alpha KA as substrate preincubated for 2 hrs followed by ATP addition and measured every 2 mins for […] by spectrophotometric analysis
[27] = molecular target: SRSF protein kinase 1 (Homo sapiens, UniProt Q96SB4); test: Inhibition of human wild type SRPK1 using MBP as substrate preincubated for 2 hrs followed by ATP addition and measured every 2 mins for […] by spectrophotometric analysis
[28] = molecular target: PAS domain-containing serine/threonine-protein kinase (Homo sapiens, UniProt Q96RG2); test: Inhibition of human wild type PASK using RBER-CHKtide as substrate preincubated for 2 hrs followed by ATP addition and measured every 2 mins for […] by spectrophotometric analysis
[29] = molecular target: T1, Tyrosine-protein kinase ABL1; details: Sf9, time 2.0 hrs; remark: listed apart in the source

T1 sequence (P00519 whole entry): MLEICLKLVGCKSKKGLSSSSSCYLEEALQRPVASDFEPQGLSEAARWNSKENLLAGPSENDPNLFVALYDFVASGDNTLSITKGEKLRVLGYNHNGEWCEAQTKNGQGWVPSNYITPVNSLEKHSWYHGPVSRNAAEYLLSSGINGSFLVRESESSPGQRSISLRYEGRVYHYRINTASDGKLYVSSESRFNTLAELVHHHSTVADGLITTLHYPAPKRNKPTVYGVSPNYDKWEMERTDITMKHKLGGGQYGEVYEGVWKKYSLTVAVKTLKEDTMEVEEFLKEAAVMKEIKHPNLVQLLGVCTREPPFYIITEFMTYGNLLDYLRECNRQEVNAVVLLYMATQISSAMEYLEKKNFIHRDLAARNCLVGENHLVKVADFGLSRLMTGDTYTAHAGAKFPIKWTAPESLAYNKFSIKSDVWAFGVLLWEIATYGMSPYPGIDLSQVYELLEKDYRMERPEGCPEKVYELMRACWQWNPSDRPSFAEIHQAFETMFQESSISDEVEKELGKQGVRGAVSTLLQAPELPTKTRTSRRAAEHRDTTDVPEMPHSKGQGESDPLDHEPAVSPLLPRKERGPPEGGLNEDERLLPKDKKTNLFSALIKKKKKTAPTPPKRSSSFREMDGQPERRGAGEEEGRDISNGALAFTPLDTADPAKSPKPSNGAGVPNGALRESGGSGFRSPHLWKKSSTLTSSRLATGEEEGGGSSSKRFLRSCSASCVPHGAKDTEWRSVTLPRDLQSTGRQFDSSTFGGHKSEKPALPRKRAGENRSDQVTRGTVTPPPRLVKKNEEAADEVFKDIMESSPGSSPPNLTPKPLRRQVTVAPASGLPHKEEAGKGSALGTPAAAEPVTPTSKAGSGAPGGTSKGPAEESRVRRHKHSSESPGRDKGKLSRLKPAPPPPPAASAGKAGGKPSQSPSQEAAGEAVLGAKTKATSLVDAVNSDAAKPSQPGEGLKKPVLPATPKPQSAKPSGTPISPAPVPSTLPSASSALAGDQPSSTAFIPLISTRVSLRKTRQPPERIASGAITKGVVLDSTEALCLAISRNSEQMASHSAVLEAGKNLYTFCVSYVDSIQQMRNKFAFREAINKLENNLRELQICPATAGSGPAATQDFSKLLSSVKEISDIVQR
Chain of Serine/threonine-protein kinase WNK2 (Q9Y3S1 whole entry): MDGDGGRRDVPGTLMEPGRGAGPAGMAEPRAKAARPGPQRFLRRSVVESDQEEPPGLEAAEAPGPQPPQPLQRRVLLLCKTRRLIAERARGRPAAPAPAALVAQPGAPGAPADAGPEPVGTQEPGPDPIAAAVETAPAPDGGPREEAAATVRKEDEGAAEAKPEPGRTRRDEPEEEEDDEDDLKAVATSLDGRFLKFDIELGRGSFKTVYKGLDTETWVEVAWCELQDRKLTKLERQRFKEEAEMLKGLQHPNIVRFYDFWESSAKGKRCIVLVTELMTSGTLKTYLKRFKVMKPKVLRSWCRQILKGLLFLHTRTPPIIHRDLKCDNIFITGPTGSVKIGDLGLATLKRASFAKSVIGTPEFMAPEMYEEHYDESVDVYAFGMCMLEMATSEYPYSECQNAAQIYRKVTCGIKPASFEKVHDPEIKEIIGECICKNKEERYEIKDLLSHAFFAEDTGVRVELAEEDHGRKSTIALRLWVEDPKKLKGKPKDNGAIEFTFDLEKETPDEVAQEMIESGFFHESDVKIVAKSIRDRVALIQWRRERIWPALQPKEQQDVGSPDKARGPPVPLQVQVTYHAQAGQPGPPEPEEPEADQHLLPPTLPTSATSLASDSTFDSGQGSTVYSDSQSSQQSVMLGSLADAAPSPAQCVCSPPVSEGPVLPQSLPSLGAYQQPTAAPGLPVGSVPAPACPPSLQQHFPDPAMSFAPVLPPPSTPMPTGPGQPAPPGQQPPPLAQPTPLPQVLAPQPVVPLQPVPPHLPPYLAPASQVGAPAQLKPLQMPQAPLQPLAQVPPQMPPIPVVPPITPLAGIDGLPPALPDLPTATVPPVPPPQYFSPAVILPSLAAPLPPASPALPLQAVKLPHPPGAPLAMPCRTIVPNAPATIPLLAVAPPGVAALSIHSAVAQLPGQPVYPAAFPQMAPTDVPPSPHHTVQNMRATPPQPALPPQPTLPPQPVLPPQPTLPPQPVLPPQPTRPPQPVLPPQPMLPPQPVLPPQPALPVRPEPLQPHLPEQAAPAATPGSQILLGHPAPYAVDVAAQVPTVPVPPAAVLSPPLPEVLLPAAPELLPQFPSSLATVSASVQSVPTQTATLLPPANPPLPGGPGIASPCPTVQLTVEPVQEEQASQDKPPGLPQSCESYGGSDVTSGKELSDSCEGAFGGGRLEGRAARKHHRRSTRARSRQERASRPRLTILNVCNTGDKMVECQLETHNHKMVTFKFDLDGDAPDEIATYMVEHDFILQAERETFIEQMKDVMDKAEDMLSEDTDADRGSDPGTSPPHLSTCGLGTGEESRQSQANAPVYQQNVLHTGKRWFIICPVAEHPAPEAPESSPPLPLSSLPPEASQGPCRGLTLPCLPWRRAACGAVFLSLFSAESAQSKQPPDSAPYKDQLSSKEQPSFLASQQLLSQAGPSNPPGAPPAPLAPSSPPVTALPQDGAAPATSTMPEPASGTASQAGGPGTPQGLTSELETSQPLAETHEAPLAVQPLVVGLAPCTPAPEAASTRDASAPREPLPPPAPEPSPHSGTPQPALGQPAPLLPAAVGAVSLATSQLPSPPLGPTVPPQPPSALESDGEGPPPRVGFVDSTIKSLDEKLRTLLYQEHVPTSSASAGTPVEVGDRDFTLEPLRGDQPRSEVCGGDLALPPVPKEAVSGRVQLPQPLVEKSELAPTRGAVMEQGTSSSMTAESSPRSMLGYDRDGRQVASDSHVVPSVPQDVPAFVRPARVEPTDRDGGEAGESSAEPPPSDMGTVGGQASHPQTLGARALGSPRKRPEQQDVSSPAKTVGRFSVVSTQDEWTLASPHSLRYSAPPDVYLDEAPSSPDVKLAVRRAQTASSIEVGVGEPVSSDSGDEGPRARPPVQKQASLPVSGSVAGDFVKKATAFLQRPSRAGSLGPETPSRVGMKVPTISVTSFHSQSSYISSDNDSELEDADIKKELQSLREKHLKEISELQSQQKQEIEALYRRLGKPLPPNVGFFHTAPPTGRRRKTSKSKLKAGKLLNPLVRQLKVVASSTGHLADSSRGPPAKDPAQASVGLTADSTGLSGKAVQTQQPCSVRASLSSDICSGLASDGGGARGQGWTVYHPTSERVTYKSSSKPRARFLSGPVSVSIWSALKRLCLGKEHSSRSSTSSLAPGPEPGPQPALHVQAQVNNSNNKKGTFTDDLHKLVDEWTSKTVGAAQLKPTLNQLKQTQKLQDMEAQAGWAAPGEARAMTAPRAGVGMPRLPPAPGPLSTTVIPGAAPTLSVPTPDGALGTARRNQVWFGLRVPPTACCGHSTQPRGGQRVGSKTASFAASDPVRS
Chain of Mitogen-activated protein kinase 10 (P53779 whole entry): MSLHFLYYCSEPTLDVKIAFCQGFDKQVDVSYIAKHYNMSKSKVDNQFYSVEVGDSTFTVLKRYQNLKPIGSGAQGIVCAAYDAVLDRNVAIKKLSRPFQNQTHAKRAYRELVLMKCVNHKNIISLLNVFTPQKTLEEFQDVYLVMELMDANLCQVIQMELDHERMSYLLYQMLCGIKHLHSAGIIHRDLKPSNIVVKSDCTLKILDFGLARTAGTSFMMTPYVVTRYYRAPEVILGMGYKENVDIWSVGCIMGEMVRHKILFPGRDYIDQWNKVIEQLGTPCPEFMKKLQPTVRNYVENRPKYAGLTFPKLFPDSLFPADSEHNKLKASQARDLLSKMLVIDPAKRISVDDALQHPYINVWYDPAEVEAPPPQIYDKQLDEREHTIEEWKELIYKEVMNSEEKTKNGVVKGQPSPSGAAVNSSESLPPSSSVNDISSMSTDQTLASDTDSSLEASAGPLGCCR
Chain of Dual specificity mitogen-activated protein kinase kinase 6 (P52564 whole entry): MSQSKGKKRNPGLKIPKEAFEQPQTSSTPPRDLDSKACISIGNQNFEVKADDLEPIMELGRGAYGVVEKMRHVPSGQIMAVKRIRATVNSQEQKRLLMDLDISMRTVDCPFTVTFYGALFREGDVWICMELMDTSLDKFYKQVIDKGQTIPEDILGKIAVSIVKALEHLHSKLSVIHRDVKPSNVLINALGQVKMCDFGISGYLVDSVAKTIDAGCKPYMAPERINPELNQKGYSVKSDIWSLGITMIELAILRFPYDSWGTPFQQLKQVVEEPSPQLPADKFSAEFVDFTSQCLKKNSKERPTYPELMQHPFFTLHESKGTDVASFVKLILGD
Chain of Serine/threonine-protein kinase TBK1 (Q9UHD2 whole entry): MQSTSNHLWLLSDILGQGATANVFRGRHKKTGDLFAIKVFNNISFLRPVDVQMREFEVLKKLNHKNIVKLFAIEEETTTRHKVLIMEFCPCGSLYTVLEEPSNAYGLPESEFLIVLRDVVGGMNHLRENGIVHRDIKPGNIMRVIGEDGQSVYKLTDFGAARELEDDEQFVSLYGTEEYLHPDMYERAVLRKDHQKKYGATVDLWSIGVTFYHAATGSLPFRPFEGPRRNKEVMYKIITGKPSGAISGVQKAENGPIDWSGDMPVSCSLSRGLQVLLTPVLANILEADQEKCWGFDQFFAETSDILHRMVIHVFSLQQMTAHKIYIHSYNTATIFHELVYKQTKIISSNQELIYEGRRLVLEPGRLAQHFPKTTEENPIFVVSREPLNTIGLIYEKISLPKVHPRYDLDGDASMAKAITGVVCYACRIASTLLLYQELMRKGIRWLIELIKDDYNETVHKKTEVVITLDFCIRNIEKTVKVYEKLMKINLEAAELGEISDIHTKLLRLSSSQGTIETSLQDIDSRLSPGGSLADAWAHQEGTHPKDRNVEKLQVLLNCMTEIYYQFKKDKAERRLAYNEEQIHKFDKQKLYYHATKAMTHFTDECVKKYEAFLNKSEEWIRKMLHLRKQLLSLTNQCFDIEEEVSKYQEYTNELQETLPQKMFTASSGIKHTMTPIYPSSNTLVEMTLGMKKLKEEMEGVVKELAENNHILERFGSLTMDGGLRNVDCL

Compound: CNC(=O)c1cc(Oc2ccc(NC(=O)Nc3cc(C(C)(C)C)nn3-c3ccc4ncccc4c3)c(F)c2)ccn1 [REBASTINIB]
- inhibition [1]: Active
- IC50 [2]: > 1000 nM
- IC50 [3]: 17 nM
- IC50 [4]: > 1000 nM
- IC50 [5]: > 1000 nM
- IC50 [6]: 400 nM
- IC50 [7]: 290 nM
- IC50 [8]: 160 nM
- IC50 [9]: > 1000 nM
- T1/2 [10]: 6.7 h
- IC50 [11]: > 1000 nM
- IC50 [12]: > 1000 nM
- IC50 [13]: 200 nM
- IC50 [14]: > 1000 nM
- IC50 [15]: 11 nM
- IC50 [16]: > 1000 nM
- IC50 [17]: 87 nM
- Activity [18]: Toxic
- IC50 [19]: > 1000 nM
- IC50 [20]: > 1000 nM
- IC50 [21]: > 1000 nM
- IC50 [22]: > 1000 nM
- IC50 [23]: 300 nM
- IC50 [24]: > 1000 nM
- IC50 [25]: > 1000 nM
- IC50 [26]: > 1000 nM
- IC50 [27]: > 1000 nM
- IC50 [28]: > 1000 nM
- Kdiss [29]: 3.33e-05 s⁻¹
